# Measurements published in PubChem BioAssay (NCI).
#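 96-well plates; 48 h exposure; 5 concentrations. Endpoints by linear interpolation between flanking doses. Not reached: highest tested concentration assigned. GI50 marks 50% less growth. TGI marks complete inhibition of growth.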
# Columns and labels:
# Assay in all cases: NCI-60 cell line screen, 48 h
# COLO 205 colon = system: COLO 205 colon
# NCI-H460 lung = system: NCI-H460 lung
# CAKI-1 renal = system: CAKI-1 renal
# RPMI-8226 leukemia = system: RPMI-8226 leukemia
# HT29 colon = system: HT29 colon
# OVCAR-5 ovarian = system: OVCAR-5 ovarian
# HS 578T breast = system: HS 578T breast
# PC-3 prostate = system: PC-3 prostate
# HL-60(TB) leukemia = system: HL-60(TB) leukemia
# SF-295 CNS = system: SF-295 CNS
# T-47D breast = system: T-47D breast
# NCI-H23 lung = system: NCI-H23 lung
# MALME-3M melanoma = system: MALME-3M melanoma
# SNB-75 CNS = system: SNB-75 CNS
# OVCAR-3 ovarian = system: OVCAR-3 ovarian
# SK-MEL-5 melanoma = system: SK-MEL-5 melanoma
# IGROV1 ovarian = system: IGROV1 ovarian
# U251 CNS = system: U251 CNS
# NCI-H522 lung = system: NCI-H522 lung
# 786-0 renal = system: 786-0 renal
# K-562 leukemia = system: K-562 leukemia
# SF-539 CNS = system: SF-539 CNS
# SF-268 CNS = system: SF-268 CNS
# MDA-MB-435 = system: MDA-MB-435
# EKVX NSCLC = system: EKVX NSCLC
# SW-620 colon = system: SW-620 colon
# HCT-116 colon = system: HCT-116 colon
# SN12C renal = system: SN12C renal
structure (smiles),measurement,setting,value
Cc1cc(S(=O)(=O)Nc2nc3cscc3c(=O)n2Cc2ccccc2)c(S)cc1Cl,TGI,COLO 205 colon,> 100 µM
same,GI50,NCI-H460 lung,28.8 µM
same,TGI,NCI-H460 lung,> 100 µM
same,GI50,CAKI-1 renal,45.4 µM
same,TGI,CAKI-1 renal,> 100 µM
same,GI50,RPMI-8226 leukemia,26.7 µM
same,TGI,RPMI-8226 leukemia,> 100 µM
same,GI50,HT29 colon,47.9 µM
same,TGI,HT29 colon,> 100 µM
same,GI50,OVCAR-5 ovarian,87.1 µM
same,TGI,OVCAR-5 ovarian,> 100 µM
same,GI50,HS 578T breast,65.6 µM
same,TGI,HS 578T breast,> 100 µM
same,GI50,PC-3 prostate,35.6 µM
same,TGI,PC-3 prostate,> 100 µM
same,GI50,HL-60(TB) leukemia,44.1 µM
same,TGI,HL-60(TB) leukemia,> 100 µM
same,GI50,SF-295 CNS,23.7 µM
same,TGI,SF-295 CNS,> 100 µM
same,GI50,T-47D breast,4.53 µM
same,TGI,T-47D breast,90.8 µM
same,GI50,NCI-H23 lung,51.5 µM
same,TGI,NCI-H23 lung,> 100 µM
same,GI50,MALME-3M melanoma,28.7 µM
same,TGI,MALME-3M melanoma,> 100 µM
same,GI50,SNB-75 CNS,> 100 µM
same,TGI,SNB-75 CNS,> 100 µM
same,GI50,OVCAR-3 ovarian,32.2 µM
same,TGI,OVCAR-3 ovarian,> 100 µM
same,GI50,SK-MEL-5 melanoma,21.4 µM
same,TGI,SK-MEL-5 melanoma,> 100 µM
same,GI50,IGROV1 ovarian,64.9 µM
same,TGI,IGROV1 ovarian,> 100 µM
same,GI50,U251 CNS,34.9 µM
same,TGI,U251 CNS,> 100 µM
same,GI50,NCI-H522 lung,81.6 µM
same,TGI,NCI-H522 lung,> 100 µM
same,GI50,786-0 renal,24.3 µM
same,TGI,786-0 renal,> 100 µM
same,GI50,K-562 leukemia,74.1 µM
same,TGI,K-562 leukemia,> 100 µM
same,GI50,SF-539 CNS,32.1 µM
same,TGI,SF-539 CNS,> 100 µM
same,GI50,SF-268 CNS,31 µM
same,TGI,SF-268 CNS,> 100 µM
same,GI50,MDA-MB-435,44.4 µM
same,TGI,MDA-MB-435,> 100 µM
same,GI50,EKVX NSCLC,23.8 µM
same,TGI,EKVX NSCLC,> 100 µM
same,GI50,SW-620 colon,26.6 µM
same,TGI,SW-620 colon,> 100 µM
same,GI50,HCT-116 colon,27.5 µM
same,TGI,HCT-116 colon,> 100 µM
same,GI50,SN12C renal,16.6 µM
same,TGI,SN12C renal,54.5 µM
